# Test results reported in PMC7913524, “Novel Biphenyl Amines Inhibit Oestrogen Receptor (ER)-α in ER-Positive Mammary Carcinoma Cells” (Molecules, 2021).
# Read-outs that look alike come from different tables or passages of the source.
# Tests used:
# ERα = target: T1, ERα (Homo sapiens, UniProt P03372); assay: ER-alpha competitive binding assay (PolarScreen ER Alpha Competitor, fluorescence polarization); settings: read-out: CBA IC50 + SD (competitive binding affinity)
# T1 construct: purchased Life Technologies
# T1 sequence (P03372 1-595): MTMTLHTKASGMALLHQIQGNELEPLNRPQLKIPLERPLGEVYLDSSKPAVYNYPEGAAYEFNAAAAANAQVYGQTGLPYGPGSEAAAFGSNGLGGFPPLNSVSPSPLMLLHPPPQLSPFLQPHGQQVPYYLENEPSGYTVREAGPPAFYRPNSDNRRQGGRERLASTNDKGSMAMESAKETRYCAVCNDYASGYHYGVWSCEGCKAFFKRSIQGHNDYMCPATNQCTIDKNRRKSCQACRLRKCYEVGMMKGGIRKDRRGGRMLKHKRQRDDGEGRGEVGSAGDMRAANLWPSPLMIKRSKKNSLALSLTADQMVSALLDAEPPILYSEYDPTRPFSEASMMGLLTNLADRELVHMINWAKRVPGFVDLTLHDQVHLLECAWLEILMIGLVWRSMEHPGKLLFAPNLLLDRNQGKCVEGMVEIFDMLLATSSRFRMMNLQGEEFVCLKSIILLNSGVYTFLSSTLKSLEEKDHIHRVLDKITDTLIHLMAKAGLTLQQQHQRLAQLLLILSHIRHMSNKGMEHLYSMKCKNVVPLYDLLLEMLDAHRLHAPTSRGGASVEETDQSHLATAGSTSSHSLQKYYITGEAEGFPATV
# Source text: First, to rank the novel biphenyl derivatives based on binding affinity to ERα, a commercially available fluorescence polarization assay kit (PolarScreen™ ER Alpha Competitor assay) was utilized. […] The smaller size of the free molecule can be discerned by increased mobility in the solution, which is detected by fluorescence polarization (FP). A shift in the FP value in the presence of the test compounds is used to determine the relative affinity of test compounds for ERα.
# The assay was performed as per the manufacturer’s instructions. The Fluorescence polarization value (mP) of each well on a fluorescence polarization plate was measured using fluorescence polarization Tecan infinite M1000PRO multimode microplate reader (Tecan, Switzerland). Data were modelled using GraphPad Prism® software from GraphPad Software, Inc..
# MCF7 cells = assay: AlamarBlue cell viability assay, MCF7; assay type: cell-based, human; settings: read-out: Cell Viability (MCF7 Cells) IC50 ± SD
# Protocol: (§1) Next, we determined the potential functional effects of novel ATBA compounds on the viability of MCF7 cells using an AlamarBlue® cell viability assay. […] We also determined the functional efficacy of the 4c compound in additional ER+ MC cell lines using an AlamarBlue® cell viability assay.
# The human Michigan Cancer Foundation-7 (MCF7) cell line was obtained from the American Type Culture Collection (ATCC, Rockville, Gaithersburg, MD, USA) and was cultured as per ATCC propagation instructions.
# (§2) AlamarBlue®, 3D Matrigel, and luciferase assay: AlamarBlue® cell viability kits were obtained from ThemoFisher Scientific (Waltham, Massachusetts, USA), and the assay was performed as previously described. 3D Matrigel assays were performed as previously described. Luciferase assays were performed as previously described. Briefly, transfections were carried out in triplicate using 1 μg of the appropriate luciferase reporter construct or empty vector along with 0.1 μg of Renilla luciferase construct as a control for transfection efficiency. Luciferase activities were measured using the Dual-Luciferase Assay System (Promega Corp, Madison, WI, USA).
# T47D cells = assay: AlamarBlue cell viability assay, T47D; assay type: cell-based; settings: Homo sapiens
# Protocol: as §1, §2
# [1] = vNN-ADMET prediction: MRTD; settings: relative to TAM
# [2] = system: MCF7 cell-generated spheroids; assay: 3D Matrigel spheroid cell viability; assay type: cell-based, human; settings: preformed MCF7 spheroids in 3D Matrigel, 5 µM, 72 h
# Protocol: Furthermore, we examined the effect of the novel biphenyl derivatives on preformed spheroids generated using MC cells in 3D Matrigel (Figure 2).
# as §2
# Figure 2 Cell viability of MCF7 cell-generated spheroids after culture in 3D Matrigel for 10 days. Preformed MCF7 cell-generated spheroids were treated with compounds for 72 h before assessing cell viability. A concentration of 5 µM was used for the treatment. The cell viability of the MCF7 cell-generated spheroids was evaluated using an AlamarBlue® viability assay as described in the Materials and Methods section. Bars are the mean of triplicate experiments; bars, ±SD. ** P < 0.001, * P < 0.05.
# BT474 cells = assay: AlamarBlue cell viability assay, BT474; assay type: cell-based; settings: Homo sapiens, BT-474
# Protocol: as §1, §2
# MDA-MB-361 cells = assay: AlamarBlue cell viability assay, MDA-MB-361; assay type: cell-based; settings: Homo sapiens
# Protocol: as §1, §2
# [3] = system: oestrogen response element (ERE) transcriptional activity (ERα); assay: ERE-luc luciferase reporter assay in MCF7 cells; assay type: cell-based, human; settings: for antagonist activity against ERα (luciferase activity): MCF7 cells, with E2 10^-8 M, compounds 10^-10 to 10^-4 M
# Protocol: as §2, with “Next, to evaluate the activity of the synthesized compounds as agonists or antagonists to ERα, a reporter assay was performed with ERE-luc. […] AlamarBlue®,” for “AlamarBlue®,”, “USA). […] (lower panel). MCF7 cells were co-transfected with ERE-luc (firefly luciferase) and Renilla luciferase constructs as described in the Materials and Methods section. […] Results are shown as mean (+SD for triplicate transfection).” for “USA).”
# CCND1 protein expression = assay: Western blot of CCND1 in MCF7 cells; assay type: cell-based, human
# Protocol: Increased expression of CCND1 is associated with approximately 50% of breast cancer cases and directly regulated by ER signalling. To determine functional effects downstream of ERα, we examined the effect of ATBA compounds on hCCND1 protein expression in MC cells. […] Western blot analysis: Western blot analysis was performed as previously described, using a primary monoclonal antibody against CCND1 and β-ACTIN obtained from Cell Signalling, Danvers, Massachusetts, USA. Quantification of blot was performed by use of ImageJ software from NIH, USA (http://imagej.nih.gov/ij/) as described previously. […] Soluble whole-cell extracts were run on an SDS-PAGE and immunoblotted. β-ACTIN was used as input control for cell lysate (left side). The predicted sizes of detected protein bands in kDa are shown on the left side. The average of three independent densitometry analyses of CCND1 and β-ACTIN is shown above (right side) by use of Image J software from NIH, USA (http://imagej.nih.gov/ij/) as described previously.
IC50 (ERα),"IC50 (MCF7 cells; Homo sapiens, MCF7, AlamarBlue)",IC50 (MCF7 cells; AlamarBlue),Compound,cell viability of spheroids compared to vehicle (DMSO) [2],antagonist activity against ERα (luciferase activity) [3],further results
340 nM,> 50 µM,,"COc1ccc(Nc2ccc(Cl)cc2)cc1C12CC3CC(CC(C3)C1)C2 [4a, 3-(Adamantan-1-yl)-N-(4-chlorophenyl)-4-methoxyaniline]",,,
202 nM,> 50 µM,,"COc1ccc(Nc2ccc(OC)c(C34CC5CC(CC(C5)C3)C4)c2)cc1 [4b, 3-(Adamantan-1-yl)-4-methoxy-N-(4-methoxyphenyl) aniline]",,,
62.8 nM,6.4 µM,6.29 ± 2.41 µM,"COc1ccc(Nc2ccc(C(F)(F)F)cc2)cc1C12CC3CC(CC(C3)C1)C2 [4c, 3-(Adamantan-1-yl)-4-methoxy-N-(4-(trifluoromethyl)phenyl) aniline]",significantly decreased cell viability,most potent antagonist activity against ERα in a dosage-dependent manner,"IC50 (T47D cells): 7.38 µM; predicted maximum recommended therapeutic dose compared to TAM [1]: approximately four times higher; inhibitory effect on spheroids compared to TAM-treated spheroids [2]: significant inhibitory effect compared to TAM-treated MC cell-generated spheroids; inhibitory effect on spheroids compared to TAM-treated spheroids ([2]; listed as AMTA): superior inhibitory effect compared to tamoxifen-treated MC cell spheroids; IC50 (BT474 cells): 6.36 µM; IC50 (MDA-MB-361 cells): 8.31 µM; IC50 ([3]; Homo sapiens, MCF7): 830 ± 60 nM; antagonist activity against ERα (luciferase activity) ([3]; listed as AMTA): significantly deceased ERE transcriptional activity; CCND1 protein levels (CCND1 protein expression): most potently decreased the protein levels of CCND1 in MC cells in the nanomolar range; CCND1 protein levels (CCND1 protein expression; listed as AMTA): significantly decreased protein levels of oestrogen-regulated CCND1 in a dose-dependent manner"
98.5 nM,12.3 ± 3.77 µM,,"COc1ccc(Nc2ccc(C)cc2)cc1C12CC3CC(CC(C3)C1)C2 [4f, 3-(Adamantan-1-yl)-4-methoxy-N-(p-tolyl) aniline]",significantly decreased cell viability,most potent antagonist activity against ERα in a dosage-dependent manner,

# The remaining lines, values behind:
Compound,IC50 (ERα),"IC50 (MCF7 cells; Homo sapiens, MCF7, AlamarBlue)",IC50 (MCF7 cells; AlamarBlue),cell viability of spheroids compared to vehicle (DMSO) [2],antagonist activity against ERα (luciferase activity) [3],further results
"COc1ccc(Nc2cccc(O)c2)cc1C12CC3CC(CC(C3)C1)C2 [4d, 3-((3-(Adamantan-1-yl)-4-methoxyphenyl)amino) phenol]",82.6 nM,8.81 ± 1.85 µM,,significantly decreased cell viability,most potent antagonist activity against ERα in a dosage-dependent manner,
COc1ccc(Nc2cccnc2)cc1C12CC3CC(CC(C3)C1)C2 [4g],129 nM,12.1 ± 3.07 µM,,significantly decreased cell viability,most potent antagonist activity against ERα in a dosage-dependent manner,
COc1ccc(Nc2ccc(C)cn2)cc1C12CC3CC(CC(C3)C1)C2 [4h],189 nM,~50 µM,42.2 ± 9.31 µM,,,
COc1ccc(Nc2cccc3ccccc23)cc1C12CC3CC(CC(C3)C1)C2 [4i],264 nM,~50 µM,47.6 ± 7.48 µM,,,
